The values below come from ChEMBL document CHEMBL4706522, “Automated design and optimization of multitarget schizophrenia drug candidates by deep learning” (Eur J Med Chem, 2020).

Data set [1] deals with T1, 5-hydroxytryptamine receptor 1A (Homo sapiens, UniProt P08908).
T1 sequence (P08908 whole entry): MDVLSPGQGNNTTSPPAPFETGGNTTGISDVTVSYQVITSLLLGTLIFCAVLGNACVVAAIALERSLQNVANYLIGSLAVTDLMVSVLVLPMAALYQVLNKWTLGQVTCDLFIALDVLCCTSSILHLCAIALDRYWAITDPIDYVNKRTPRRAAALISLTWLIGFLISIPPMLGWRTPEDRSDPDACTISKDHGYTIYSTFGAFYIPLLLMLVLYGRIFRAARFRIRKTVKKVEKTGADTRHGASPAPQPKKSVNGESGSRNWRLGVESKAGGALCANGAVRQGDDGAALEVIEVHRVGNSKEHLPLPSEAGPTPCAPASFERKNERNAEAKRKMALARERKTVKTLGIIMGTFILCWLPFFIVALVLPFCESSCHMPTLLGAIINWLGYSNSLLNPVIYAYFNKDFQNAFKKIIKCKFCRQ
The data set is described as follows: Agonist activity at 5-HT1A receptor (unknown origin) preincubated for 60 mins followed by addition of Eu-cAMP and measured after 60 mins by plate reader method. Type of data set: functional. As to conditions: for EC50: read-out: pEC50 (converted).

Data set [2] addresses 5-hydroxytryptamine receptor 2A (Homo sapiens, UniProt P28223). The data set is described as follows: Antagonist activity at 5-HT2A receptor (unknown origin) assessed as decrease in intracellular calcium flux preincubated with calcium followed by compound challenge and measured after 10 mins by FLIPR method. Type of data set: functional, cell-based. As to conditions: for IC50: read-out: pIC50 (converted).

The subject of the next data set is Mus musculus. Put plainly: Antipsychotic activity in ICR mouse assessed as reduction of PCP induced hyperactivity at 3 mg/kg, ig pretreated with compound for 30 mins followed by PCP challenge for 10 mins and measured after 60 mins. Particulars: po, 1.667 h, time 100 min. The data set is classed as functional.
The next data set concerns the target D(2) dopamine receptor (Homo sapiens, UniProt P14416). Put plainly: Antagonist activity at D2 receptor (unknown origin) preincubated for 60 mins followed by addition of Eu-cAMP and measured after 60 mins by plate reader method. Type of data set: functional.
Data set [3] can be described thus: Toxicity in ICR mouse assessed as induction of catalepsy at 1 mg/kg, po. Type of data set: organism-based. As to conditions: in vivo.
Data set [4] in a line: Toxicity in ICR mouse assessed as induction of sedation by measuring spontaneous locomotor activity at 0.3 to 3 mg/kg, po measured for 30 mins following drug administration. The data set is classed as organism-based. Particulars: in vivo, 0.5 h, dose 0.3-3 mg/kg.

pEC50, pIC50: −log10 of the molar value.

Sequence of D(2) dopamine receptor (P14416 whole entry): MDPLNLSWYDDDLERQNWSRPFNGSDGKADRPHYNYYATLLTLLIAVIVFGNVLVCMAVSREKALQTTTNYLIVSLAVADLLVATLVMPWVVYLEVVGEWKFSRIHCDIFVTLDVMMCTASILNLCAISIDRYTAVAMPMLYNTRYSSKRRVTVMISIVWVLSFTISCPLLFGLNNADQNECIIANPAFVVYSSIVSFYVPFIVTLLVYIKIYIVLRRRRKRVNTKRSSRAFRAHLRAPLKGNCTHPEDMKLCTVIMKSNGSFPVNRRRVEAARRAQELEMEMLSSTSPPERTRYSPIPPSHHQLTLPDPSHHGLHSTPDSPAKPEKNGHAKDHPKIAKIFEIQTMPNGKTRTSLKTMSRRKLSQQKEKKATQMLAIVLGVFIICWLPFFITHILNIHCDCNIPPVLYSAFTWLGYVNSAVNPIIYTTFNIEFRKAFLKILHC
Sequence of 5-hydroxytryptamine receptor 2A (P28223 whole entry): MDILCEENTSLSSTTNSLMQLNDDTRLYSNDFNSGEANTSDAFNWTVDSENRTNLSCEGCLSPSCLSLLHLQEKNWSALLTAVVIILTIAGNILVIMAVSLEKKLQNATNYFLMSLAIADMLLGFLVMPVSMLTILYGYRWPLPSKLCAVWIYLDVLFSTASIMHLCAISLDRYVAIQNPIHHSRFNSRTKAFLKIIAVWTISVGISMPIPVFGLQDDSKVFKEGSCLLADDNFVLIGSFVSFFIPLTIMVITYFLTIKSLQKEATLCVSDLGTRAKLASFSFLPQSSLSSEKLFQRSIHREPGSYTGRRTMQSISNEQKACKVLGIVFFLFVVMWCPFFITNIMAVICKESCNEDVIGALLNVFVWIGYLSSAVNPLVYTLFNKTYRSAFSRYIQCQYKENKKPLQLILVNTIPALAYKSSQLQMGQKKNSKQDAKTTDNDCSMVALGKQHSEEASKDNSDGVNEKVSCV

As to `O=C1COc2ccccc2N1CCCCN1CCN(c2cccc3sccc23)CC1`, the pEC50 in data set [1] (read-out: EC50) is 9.29. The pIC50 in data set [2] (read-out: IC50) is 8.79. In addition, the inhibition in vivo at 3 mg/kg with Mus musculus came out at 39%.
As to `COc1ccc2ncc(=O)n(CCCCN3CCN(c4cccc5sccc45)CC3)c2c1`, in data set [1], the EC50 is 2.69 nM. For the same compound, the IC50 in data set [2] was 20.9 nM.
At D(2) dopamine receptor, `Nc1ccc2c(c1)N(CCCCN1CCN(c3cccc4sccc34)CC1)S(=O)(=O)CC2` gave a negative-log IC50 (pIC50) of 7.17. In addition, the EC50 in data set [1] is 0.794 nM. For the same compound, the IC50 in data set [2] was 2.82 nM. Besides, the inhibition in vivo at 3 mg/kg with Mus musculus amounted to 48%.
The compound `O=S1(=O)CCc2ccc(O)cc2N1CCCCN1CCN(c2cccc3sccc23)CC1` showed a pIC50 against D(2) dopamine receptor of 7.70. Besides, in data set [1], the EC50 was 1.12 nM. Further, the IC50 in data set [2] is 18.6 nM. Moreover, the inhibition in vivo at 3 mg/kg with Mus musculus was determined as 13%.
For `O=C1NCC(=O)N(CCCCN2CCN(c3cccc4sccc34)CC2)c2cc(F)ccc21` the same measures were 7.46, 4.07 nM, 24.5 nM and 43%.
`CN1CC(=O)N(CCCCN2CCN(c3cccc4sccc34)CC2)c2ccccc2C1=O` showed a pIC50 on D(2) dopamine receptor of 6.91. Moreover, the EC50 in data set [1] is 11 nM. In addition, in data set [2], the IC50 was 42.7 nM. Moreover, the inhibition in vivo at 3 mg/kg in the data set on Mus musculus is 15%.
Take `O=c1[nH]c(=O)n(CCCCN2CCN(c3cccc4sccc34)CC2)c2ccccc12`: in data set [1], the EC50 is 3.39 nM. Further, the IC50 in data set [2] was 129 nM. For the same compound, the Activity entry in data set [3] and in data set [4] was “Non-Toxic” in each case.
On to `O=C1CCc2ccc(OCCCCN3CCN(c4cccc(Cl)c4Cl)CC3)cc2N1` [ARIPIPRAZOLE], for which, in the data set on Mus musculus, the inhibition in vivo at 3 mg/kg worked out at 54%.
